Laboratory results: US20260125359A1, “HETEROARYL COMPOUNDS AS MULTI-TARGET PROTEIN KINASE INHIBITORS” (FUJIAN HAIXI PHARMACEUTICALS CO., LTD., priority 2023, published 2026)
Read-outs that look alike come from different tables or passages of the source.

System: M-NFS-60 cells
Test: M-NFS-60 cell in vitro assay (CCK, 48 h, M-CSF factor medium)
Format: cell-based
Summary of the method: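 Mouse M-NFS-60 cells (2000/well) in RPMI-1640 with 10% serum and M-CSF (25 ng/ml) were pre-incubated 4 h, then exposed to DMSO-diluted compound gradients for 48 h at 5% CO2. Viability read by CCK, 2 h, OD 450 nm; IC50 from curve fitting.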

[1] = M-NFS-60 cells, read-out: M-NFS-60cellassay IC50

Structure (SMILES)	IC50 [1]	IC50 (read-out: M-NFS-60cellassay IC50(nM))
Cn1cc(-c2cnc(N)c(O[C@H]3CCc4c(Nc5cc(C(C)(C)C)on5)cccc43)c2)cn1 [Compound 68, (S)—N-(1-((2-amino-5-(1-methyl-1H-pyrazol-4-yl)pyridin-3-yl)oxy)-2,3-dihydro-1H-inden-4-yl)-5-(tert-butyl) isoxazol-3-amine]	200 to 500 nM	
Cn1cc(-c2cncc(N[C@H]3CCc4c(Nc5ncc(C(C)(C)C)s5)cccc43)c2)cn1 [Compound 42m]	50 to 200 nM	
Cn1cc(-c2cncc(N[C@H]3CCc4c(CNc5cccc(C6CC6)c5)cccc43)c2)cn1 [Compound 59b]	200 to 500 nM	
COCC(C)(C)c1cc(Nc2cccc3c2CC[C@@H]3Nc2cnc3cnn(C)c3c2)no1 [Compound 91c]	< 50 nM	
Cn1cc2ncc(N[C@H]3CCc4c(CNc5nc(C6CC6)cs5)cccc43)cc2n1 [Compound 96d]	> 500 nM	
CN(C)Cc1ccc(NC(=O)c2cccc3c2CC[C@@H]3N(C)c2cnc3cnn(C)c3c2)cc1F [Compound 80c]	50 to 200 nM	
COc1cc(C(=O)Nc2cccc3c2C(=O)CC3Nc2cncc(-c3cnn(C)c3)c2)ccc1F (centres unmarked) [Compound 69, 4-fluoro-3-methoxy-N-(1-((5-(1-methyl-1H-pyrazol-4-yl)pyridin-3-yl)amino)-3-oxo-2,3-dihydro-1H-inden-4-yl)benzamide]	> 500 nM	
Cn1cc2cc(N[C@H]3CCc4c(C(=O)Nc5cccc(C6CC6)c5)cccc43)cnc2n1 [Compound 74c]	50 to 200 nM	
Cn1ncc2ncc(N[C@H]3CCc4c(Nc5nc(C(C)(C)C)cs5)cccc43)cc21 [Compound 91b]	50 to 200 nM	
CN(c1cnc2cnn(C)c2c1)[C@H]1CCc2c(C(=O)Nc3nn(C)c4ccccc34)cccc21 [Compound 80h]	< 50 nM	
Cn1cc(-c2cncc(N[C@H]3CCc4c(C(=O)Nc5cccc(C6CC6)c5)cc(F)cc43)c2)cn1 [Compound 51b]	< 50 nM	
Cn1cc(-c2cncc(N[C@H]3CCc4c(C(=O)NC5CCOCC5)cccc43)n2)cn1 [Compound 27l]	> 500 nM	
Cn1cc2ncc(O[C@H]3CCc4c(C(=O)Nc5ccc(F)c(Cl)c5)cccc43)cc2n1 [Compound 76as]	< 50 nM	
Clc1cncc(N[C@H]2CCc3c(Nc4noc5ccccc45)cccc32)c1 [Compound 42j]	> 500 nM	
Cc1cccc(NC(=O)c2cccc3c2CC[C@@H]3Nc2cncc(C3=CCN(C)CC3)n2)c1 [Compound 33, (S)-1-((6-(1-methyl-1,2,3,6-tetrahydropyridin-4-yl)pyrazin-2-yl)amino)-N-(m-tolyl)-2,3-dihydro-1H-indene-4-carboxamide]		50 to 200 nM
Cn1cc(-c2cncc(N[C@H]3CCc4c(Nc5cc(-c6ccccc6)on5)cccc43)c2)cn1 [Compound 42r]	50 to 200 nM	
Cn1cc2ncc(N[C@H]3CCc4c(Nc5noc(C6CCCC6)n5)cccc43)cc2n1 [Compound 93k]	< 50 nM	
Cn1cc(-c2cncc(N[C@H]3CCc4c(NC5CCCCC5)cccc43)n2)cn1 [Compound 60a]	> 500 nM	
Cc1ccc(C(=O)Nc2cccc3c2CC[C@@H]3Oc2cc(-c3cnn(C)c3)cnc2N)cc1C [Compound 3f]	< 50 nM	

Structure (SMILES)	IC50 [1]	IC50 (read-out: M-NFS-60cellassay IC50(nM))
CN(c1cncc(-c2cnn(C)c2)c1)[C@H]1CCc2c(C(=O)Nc3cccc(C4CC4)c3)cc(F)cc21 [Compound 52, (S)—N-(3-cyclopropylphenyl)-6-fluoro-1-(methyl (5-(1-methyl-1H-pyrazol-4-yl)pyridin-3-yl)amino)-2,3-dihydro-1H-indene-4-carboxamide]	< 50 nM	
COc1c(Cl)cccc1NC(=O)c1cccc2c1CC[C@@H]2Oc1cnc2cn(C)nc2c1 [Compound 76be]	50 to 200 nM	
Cc1cccc(C(=O)Nc2cccc3c2CC[C@@H]3Nc2cncc(-c3cnn(C)c3)n2)c1 [Compound 25a]	< 50 nM	
Cn1ncc2ncc(N[C@H]3CCc4c(Nc5noc(C(C)(C)C)n5)cccc43)cc21 [Compound 93a]	< 50 nM	
CN1CCc2ccc(NC(=O)c3cccc4c3CC[C@@H]4N(C)c3cncc(-c4cnn(C)c4)c3)cc2C1 [Compound 22c]	50 to 200 nM	
Cc1cncc(Nc2cccc3c2CC[C@@H]3Nc2cncc(-c3cnn(C)c3)n2)c1 [Compound 39b]	> 500 nM	
Cc1cccc(C(=O)Nc2cccc3c2CC[C@@H]3Nc2cncc(Cl)n2)c1 [Compound 30, (S)—N-(1-((6-chloropyrazin-2-yl)amino)-2,3-dihydro-1H-inden-4-yl)-3-methylbenzamide]	< 50 nM	
Cn1cc(-c2cncc(N[C@H]3CCc4c(C(=O)NN5CC6CCCC6C5)cccc43)n2)cn1 (some centres unmarked) [Compound 27i]	< 50 nM	
Cc1csc(Nc2cccc3c2CC[C@@H]3Nc2cncc(-c3cnn(C)c3)n2)n1 [Compound 36a]	> 500 nM	
Cn1cc(-c2cncc(O[C@H]3CCc4c(C(=O)Nc5cncc(F)c5)cccc43)c2)cn1 [Compound 19t]	50 to 200 nM	
O=C(Nc1cccc2c1CC[C@@H]2Nc1cncc(Br)c1)c1cccc(C2CC2)c1 [Compound 11, (S)—N-(1-((5-bromopyridin-3-yl)amino)-2,3-dihydro-1H-inden-4-yl)-3-cyclopropylbenzamide]	50 to 200 nM	
Cn1cc(-c2cnc(N)c(O[C@H]3CCc4c(C(=O)Nc5cccc(CN6CCCCC6)c5)cccc43)c2)cn1 [Compound 5b]	50 to 200 nM	
Cn1cc(-c2cc(O[C@H]3CCc4c(C(=O)Nc5ccc(C(F)(F)F)cc5)cccc43)ccn2)cn1 [Compound 56, (S)-1-((2-(1-methyl-1H-pyrazol-4-yl)pyridin-4-yl)oxy)-N-(4-(trifluoromethyl)phenyl)-2,3-dihydro-1H-indene-4-carboxamide]	> 500 nM	
CC(C)c1cnc(Nc2cccc3c2CC[C@@H]3Nc2cncc(-c3cnn(C)c3)n2)s1 [Compound 37, (S)—N^4-(5-isopropylthiazol-2-yl)-N^1-(6-(1-methyl-1H-pyrazol-4-yl)pyrazin-2-yl)-2,3-dihydro-1H-indene-1,4-diamine]	50 to 200 nM	
CN1CCN(c2cccc(NC(=O)c3cccc4c3CC[C@@H]4Nc3cncc(-c4cnn(C)c4)c3)c2)CC1 [Compound 14ai]	50 to 200 nM	
Cn1cc(-c2cncc(N[C@H]3CCc4c(C(=O)Nc5ccc(C(F)(F)F)cc5)cccc43)c2)cn1 [Compound 14al]	< 50 nM	
Cn1cc2ncc(N[C@H]3CCc4c(Nc5noc(C6(C)CCCC6)n5)cccc43)cc2n1 [Compound 93m]	< 50 nM	
Cn1cc(-c2cncc(N[C@H]3CCc4c(C(=O)Nc5cccc(C6CC6)c5)ccnc43)c2)cn1 [Compound 55, (S)—N-(3-cyclopropylphenyl)-7-((5-(1-methyl-1H-pyrazol-4-yl)pyridin-3-yl)amino)-6,7-dihydro-5H-cyclopenta[b]pyridine-4-carboxamide]	200 to 500 nM	
Cc1cccc(NC(=O)c2cccc3c2CC[C@@H]3Nc2cncc(-c3cnn(C)c3)n2)c1 [Compound 26, (S)-1-((6-(1-methyl-1H-pyrazol-4-yl)pyrazin-2-yl)amino)-N-(m-tolyl)-2,3-dihydro-1H-indene-4-carboxamide]	< 50 nM	

Structure (SMILES)	IC50 [1]	IC50 (read-out: M-NFS-60cellassay IC50(nM))
Cn1cc(-c2cnc(N)c(O[C@H]3CCc4c(NC(=O)c5cccc(CN6CCCC6)c5)cccc43)c2)cn1 [Compound 3i]	> 500 nM	
Cc1cccc(NC(=O)c2cccc3c2CC[C@@H]3N(C)c2cnc3cn(C)nc3c2)c1F [Compound 80j]	< 50 nM	
Nc1ncc(Cl)cc1O[C@H]1CCc2c(C(=O)Nc3cccc(C4CC4)c3)cccc21 [Compound 7, (S)-1-((2-amino-5-chloropyridin-3-yl)oxy)-N-(3-cyclopropylphenyl)-2,3-dihydro-1H-indene-4-carboxamide]	< 50 nM	
CC(C)c1cc(Nc2cccc3c2CC[C@@H]3Nc2cncc(Cl)c2)no1 [Compound 42b]	50 to 200 nM	
Cn1cc(-c2cncc(O[C@H]3CCc4c(C(=O)Nc5cccc(CN6CCC6)c5)cccc43)c2)cn1 [Compound 19s]	200 to 500 nM	
COC(=O)Nc1cccc2c1CC[C@@H]2Nc1cncc(-c2cnn(C)c2)n1 [Compound 29, methyl(S)-(1-((6-(1-methyl-1H-pyrazol-4-yl)pyrazin-2-yl)amino)-2,3-dihydro-1H-inden-4-yl) carbamate]	> 500 nM	
CN(C)Cc1ccc(NC(=O)c2cccc3c2CC[C@@H]3N(C)c2cncc(-c3cnn(C)c3)c2)cc1 [Compound 22f]	> 500 nM	
CN(c1cncc(-c2cnn(C)c2)c1)[C@H]1CCc2c(Nc3cc(C(C)(C)C)on3)cccc21 [Compound 49, (S)—N^4-(5-(tert-butyl)isoxazol-3-yl)-N^1-methyl-N1-(5-(1-methyl-1H-pyrazol-4-yl)pyridin-3-yl)-2,3-dihydro-1H-indene-1,4-diamine]	> 500 nM	
Cn1cc(-c2cnc(N)c(O[C@H]3CCc4c(NC(=O)c5cccc(C(F)(F)F)c5)cccc43)c2)cn1 [Compound 3e]	< 50 nM	
Cn1ncc2ncc(N[C@H]3CCc4c(Nc5nc(C(C)(C)C)co5)cccc43)cc21 [Compound 91g]	50 to 200 nM	
CN1CCc2ccc(NC(=O)c3cccc4c3CC[C@@H]4Oc3cncc(-c4cnn(C)c4)c3)cc2C1 [Compound 18, (S)—N-(2-methyl-1,2,3,4-tetrahydroisoquinolin-7-yl)-1-((5-(1-methyl-1H-pyrazol-4-yl)pyridin-3-yl)oxy)-2,3-dihydro-1H-indene-4-carboxamide]	50 to 200 nM	
Cn1cc(-c2cncc(N[C@H]3CCc4c(NC(=O)NC5CCCCC5)cccc43)n2)cn1 [Compound 65a]	< 50 nM	
Cc1cccc(NCc2cccc3c2CC[C@@H]3Nc2cnc3cn(C)nc3c2)c1 [Compound 96b]	50 to 200 nM	
Cn1cc2ncc(N[C@H]3CCc4c(CNc5cccc(F)c5)cccc43)cc2n1 [Compound 96c]	> 500 nM	
Cn1cc2ncc(N[C@H]3CCc4c(Nc5cc(C(C)(C)C(F)(F)F)on5)cccc43)cc2n1 [Compound 91j]	< 50 nM	
Cn1cc(-c2cncc(N[C@H]3CCc4c(Nc5cc(C(C)(C)C)no5)cccc43)c2)cn1 [Compound 42n]	50 to 200 nM	
CN1CCC[C@H]1c1nc(Nc2cccc3c2CC[C@@H]3Nc2cnc3cn(C)nc3c2)no1 [Compound 93c]	50 to 200 nM	
Cn1cc(-c2cncc(N[C@H]3CCc4c(C(=O)Nc5cccc(CN6CCCCC6)c5)cccc43)c2)cn1 [Compound 14at]	50 to 200 nM	
